pIC50: −log10 of the molar value. “Also recorded” adds a separate entry of the source.
Assays:
[1] = biological target: phage V6 (peptide V6) binding to doxorubicin; test: Displacement assay: inhibition of V6 phage binding to doxorubicin-BSA coated wells by drugs; details: for pIC50: read-out: IC50 for inhibiting the binding of phages V6 to doxorubicin; for blocking/displacement of the interaction of the phage with doxorubicin: result in words
Experimental: Phage V6 (10^10 virions) was preincubated for 1 hr at room temperature in 100 μl of 0.1% BSA/PBS buffer containing different drug concentrations (10^-4 M to 10^-9 M), and aliquots were added to microtiter wells, which were […] with doxorubicin-BSA as previously described in Example II. After a 1-h incubation at room temperature, the wells were washed 12 times with PBS and the remaining bound phages eluted with 50 μl of 0.1 M HCl (pH adjusted to 2.2 with glycine). The phages were quantitated by titration on log phase of E. coli K91Kan cells plated on LB plates with […] tetracycline (Parmley & Smith, Gene, 73: 305-318 (1988)).

[2] = ELISA of phage binding to immobilized doxo-BSA, detected with polyclonal anti-phage serum; details: result in words
Experimental: In order to characterize the binding of individual clones, four different clones V6, V10, V12 and A4 together with the control phage X1 were analyzed for binding to doxorubicin in an ELISA experiment in which polyclonal anti-phage antibodies were used to detect bound phages. Antisera were raised against fd-Tet phage lacking insertion into pIII. Three rabbits were injected intramuscularly with 0.5 mg of fd-ted phages in Freunds complete adjuvant and then boosted three times with 0.25 mg of fd-ted phages in incomplete adjuvant at 3 weeks intervals. The titer of the antisera was measured with an ELISA using phage immobilized in Maxisorb microtiter wells as described (Motti et al., Gene, 146: 91-198 (1994)). All rabbits produced high titer antisera after the second boost. […]
Phages from the second PEG precipitation (Parmley & Smith, Gene, 73: 305-318 (1988)) were dissolved in 210 μl of 0.15 M NaCl, microfuged for 1 min, precipitated from 200 μl of the supernatant by the addition of 21.2 μl of 1 M acetic acid, and by incubation for 10 min at room temperature and 10 min on ice. […] Phage concentration was determined as described in Parmley & Smith, Gene, 73: 305-318 (1988). […] To reveal the reaction, 100 μl of ABTS solution (Kirkegaard & Perry Labs, Maryland, USA) were added, incubated for 30 min at room temperature, and read in a microplate reader. […]

[3] = ELISA control empty wells (plastic binding)
Experimental: Phages from the second PEG precipitation (Parmley & Smith, Gene, 73: 305-318 (1988)) were dissolved in 210 μl of 0.15 M NaCl, microfuged for 1 min, precipitated from 200 μl of the supernatant by the addition of 21.2 μl of 1 M acetic acid, and by incubation for 10 min at room temperature and 10 min on ice. (Scott & Smith, Science, 249: 386-390 (1990)). Phages were sedimented (microfuged, 45 min, 4 C.) and dissolved in 60 μl of TBS. Phage concentration was determined as described in Parmley & Smith, Gene, 73: 305-318 (1988). These partially purified phages were subjected to one round of screening, except that the phages were not acid eluted. Instead, blocking solution [250 μl of nonfat dry milk ([…]) in 0,05% TWEEN20 ™/TBS (TWEEN20 ™: Polysorbate 20)] was added to the wells. After a 2-h incubation at room temperature, wells were washed three times in 0.05% TWEEN20 ™/TBS. Rabbit anti-phage fd-ted serum, 100 μl of a 1:1000 dilution (in blocking solution) was added to wells and incubated overnight. Wells were washed seven times in 0.05% TWEEN20 ™/TBS and once with TBS; 100 μl of a peroxidase-conjugated goat anti-rabbit immunoglobulin were then added (Kirkegaard & Perry Labs, Maryland, USA, diluted 1:1000). […] To reveal the reaction, 100 μl of ABTS solution (Kirkegaard & Perry Labs, Maryland, USA) were added, incubated for 30 min at room temperature, and read in a microplate reader. […]

[4] = phage V6 10^10 virions preincubated 1 hr with drug 10^-4 M to 10^-9 M, doxorubicin-BSA coated wells

Molecule | IC50 for inhibiting the binding of phages V6 to doxorubicin [1, 4] | pIC50 [1, 4] | blocking/displacement of the interaction of the phage with doxorubicin [1] | binding of display phage to doxorubicin (ELISA, OD405) [2] | binding of phage to plastic [3]
Nc1ccn([C@@H]2O[C@H](CO)[C@@H](O)[C@@H]2O)c(=O)n1 [Ara-C] | essentially inactive | – | – | – | –
COc1cccc2c1C(=O)c1c(O)c3c(c(O)c1C2=O)C[C@@](O)(C(=O)CO)C[C@@H]3O[C@H]1C[C@H](N)[C@H](O)[C@H](C)O1 [doxorubicin] | – | 8.35 | could be blocked | – | –
CC[C@]1(O)C[C@@H]2CN(CCc3c([nH]c4ccccc34)[C@@](C(=O)OC)(c3cc4c(cc3OC)N(C)[C@H]3[C@@](O)(C(=O)OC)[C@H](OC(C)=O)[C@]5(CC)C=CCN6CC[C@]43[C@@H]65)C2)C1 [vinblastine] | – | 8.82 | displaced; also recorded: could be blocked | – | –
VCDWWGWGIC [phage V6] | – | – | – | strong specific binding | only background binding

Reference: patent US6031071A, “Methods of generating novel peptides” (Biophage, Inc., priority 1996, dated 2000)
